Data reported in patent publication US20230081720A1, “MCL-1 INHIBITOR ANTIBODY-DRUG CONJUGATES AND METHODS OF USE” (NOVARTIS AG, priority 2019, published 2023).
Where a name gives a salt, the structure may show the parent alone. Read-outs that look alike come from different tables or passages of the source.

What was measured:
[1] = system: NOMO-1; format: cell-based
Method: (§1) Cell lines were cultured in media that is optimal for their growth at 5% CO2, 37° C. in a tissue culture incubator. Prior to seeding for the proliferation assay, the cells were split at least 2 days before the assay to ensure optimal growth density. […] Cell viability and cell density were determined using a cell counter (Vi-Cell XR Cell Viability Analyzer, Beckman Coulter). […] Cells were seeded at a density of 1,000 cells per well in 45 μL of standard growth media. Plates were incubated at 5% CO2, 37° C. overnight in a tissue culture incubator. […] Each drug concentration was tested in quadruplets. […] Plates were incubated at room temperature for 10 minutes to stabilize luminescent signals prior to reading using a luminescence reader (EnVision Multilabel Plate Reader, PerkinElmer). To evaluate the effect of the drug treatments, luminescent counts from wells containing untreated cells (100% viability) were used to normalize treated samples.

[2] = system: EOL-1; format: cell-based
Method: as §1

[3] = CD74 ADC with the named linker-payload, 5 days
[4] = CD74 ADC with the named linker-payload, 5 days, read-out: NOMO-1 IC50
[5] = CD74 ADC with the named linker-payload, 5 days, read-out: EOL-1 IC50

Structure (SMILES) | NOMO-1 Amax [1, 3] | IC50 [1, 4] [nM] | EOL-1 Amax [2, 3] | IC50 [2, 5] [nM] | IC50 [1] [nM] | IC50 [2] [nM]
COc1ccccc1-c1nccc(COc2ccccc2C[C@@H](Oc2ncnc3sc(-c4ccc(F)cc4)c(-c4ccc(OCCN5CC[N+](C)(Cc6ccc(NC(=O)[C@H](CCCNC(N)=O)NC(=O)[C@@H](NC(=O)CCOCCN7C(=O)C=CC7=O)C(C)C)cc6CN(C)C(=O)[C@H](CCC(=O)O)NC(=O)CS(=O)(=O)O)CC5)c(Cl)c4C)c23)C(=O)O)n1 [L71-P1, 4-(2-(4-(4-((R)-1-carboxy-2-(2-((2-(2-methoxyphenyl)pyrimidin-4-yl)methoxy)phenyl)ethoxy)-6-(4-fluorophenyl)thieno[2,3-d]pyrimidin-5-yl)-2-chloro-3-methylphenoxy)ethyl)-1-(2-(((S)-4-carboxy-N-methyl-2-(2-sulfoacetamido)butanamido)methyl)-4-((S)-2-((S)-2-(3-(2-(2,5-dioxo-2,5-dihydro-1H-pyrrol-1-yl)ethoxy)propanamido)-3-methylbutanamido)-5-ureidopentanamido)benzyl)-1-methylpiperazin-1-ium] | 53.62 | 9.82 | 93.09 | 0.341 | – | –
COCCOCCOCCOCCOCCOCCOCCOCCOCCOCCOCCOCCC(=O)N[C@@H](CCC(=O)O)C(=O)N(C)Cc1cc(NC(=O)[C@H](CCCNC(N)=O)NC(=O)[C@@H](NC(=O)CCOCCN2C(=O)C=CC2=O)C(C)C)ccc1C[N+]1(C)CCN(CCOc2ccc(-c3c(-c4ccc(F)cc4)sc4ncnc(O[C@H](Cc5ccccc5OCc5ccnc(-c6ccccc6OC)n5)C(=O)O)c34)c(C)c2Cl)CC1 [L72-P1] | 57.68 | – | 109.8 | 0.386 | – | –
COc1ccccc1-c1nccc(COc2ccccc2C[C@@H](Oc2ncnc3sc(-c4ccc(F)cc4)c(-c4ccc(OCCN5CC[N+](C)(Cc6ccc(NC(=O)[C@H](CCCNC(N)=O)NC(=O)[C@@H](NC(=O)CCOCCN7C(=O)C=CC7=O)C(C)C)cc6CN(C)C(=O)[C@H](N)CS(=O)(=O)O)CC5)c(Cl)c4C)c23)C(=O)O)n1 [L86-P1] | 74.52 | – | 105.5 | – | 7.47 | 0.721
COc1ccccc1-c1nccc(COc2ccccc2C[C@@H](Oc2ncnc3sc(-c4ccc(F)cc4)c(-c4ccc(OCCN5CC[N+](C)(Cc6ccc(NC(=O)[C@H](CCCNC(N)=O)NC(=O)[C@@H](NC(=O)CCOCCN7C(=O)C=CC7=O)C(C)C)cc6COCc6cn(CCOC(=O)NS(=O)(=O)NCCOCCOCCO[C@@H]7O[C@H](CO)[C@@H](O)[C@H](O)[C@H]7O)nn6)CC5)c(Cl)c4C)c23)C(=O)O)n1 [L62-P1, trifluoroacetate] | 65.18 | 3.41 | 83.03 | 0.771 | – | –
COc1ccccc1-c1nccc(COc2ccccc2C[C@@H](Oc2ncnc3sc(-c4ccc(F)cc4)c(-c4ccc(OCCN5CC[N+](C)(Cc6ccc(NC(=O)[C@H](CCCNC(N)=O)NC(=O)[C@@H](NC(=O)CCOCCN7C(=O)C=CC7=O)C(C)C)cc6CN(C)C(=O)CN(CC(=O)O)CC(=O)O)CC5)c(Cl)c4C)c23)C(=O)O)n1 [L67-P1, 1-(2-((2-(bis(carboxymethyl)amino)-N-methylacetamido)methyl)-4-((S)-2-((S)-2-(3-(2-(2,5-dioxo-2,5-dihydro-1H-pyrrol-1-yl)ethoxy)propanamido)-3-methylbutanamido)-5-ureidopentanamido)benzyl)-4-(2-(4-(4-((R)-1-carboxy-2-(2-((2-(2-methoxyphenyl)pyrimidin-4-yl)methoxy)phenyl)ethoxy)-6-(4-fluorophenyl)thieno[2,3-d]pyrimidin-5-yl)-2-chloro-3-methylphenoxy)ethyl)-1-methylpiperazin-1-ium] | 79.39 | – | 119.3 | – | 2.49 | 0.261
COc1ccccc1-c1nccc(COc2ccccc2C[C@@H](Oc2ncnc3sc(-c4ccc(F)cc4)c(-c4ccc(OCCN5CC[N+](C)(Cc6ccc(NC(=O)[C@H](CCCNC(N)=O)NC(=O)[C@@H](NC(=O)CCOCCN7C(=O)C=CC7=O)C(C)C)cc6CN(C)C(=O)[C@H](CCCCNC(=O)CS(=O)(=O)O)NC(=O)CS(=O)(=O)O)CC5)c(Cl)c4C)c23)C(=O)O)n1 [L78-P1, 4-(2-(4-(4-((R)-1-carboxy-2-(2-((2-(2-methoxyphenyl)pyrimidin-4-yl)methoxy)phenyl)ethoxy)-6-(4-fluorophenyl)thieno[2,3-d]pyrimidin-5-yl)-2-chloro-3-methylphenoxy)ethyl)-1-(4-((S)-2-((S)-2-(3-(2-(2,5-dioxo-2,5-dihydro-1H-pyrrol-1-yl)ethoxy)propanamido)-3-methylbutanamido)-5-ureidopentanamido)-2-(((S)-N-methyl-2,6-bis(2-sulfoacetamido)hexanamido)methyl)benzyl)-1-methylpiperazin-1-ium] | 53.4 | 3.73 | 87.22 | 0.43 | – | –
COc1ccccc1-c1nccc(COc2ccccc2C[C@@H](Oc2ncnc3sc(-c4ccc(F)cc4)c(-c4ccc(OCCN5CC[N+](C)(Cc6ccc(NC(=O)[C@H](CCCNC(N)=O)NC(=O)[C@@H](NC(=O)CCOCCN7C(=O)C=CC7=O)C(C)C)cc6CN(C)C(=O)CN(C)C(=O)CN(C)C(=O)CN(C)C(=O)CN(C)C(=O)CN(C)C(=O)CN(C)C(=O)CN(C)C(=O)CN(C)C(=O)CN(C)C(=O)CN(C)C(=O)CN(C)C(=O)CN(C)C(=O)CCC(=O)O)CC5)c(Cl)c4C)c23)C(=O)O)n1 [L35-P1] | 62.73 | – | 75.56 | – | 6.9 | 0.894
COc1ccccc1-c1nccc(COc2ccccc2C[C@@H](Oc2ncnc3sc(-c4ccc(F)cc4)c(-c4ccc(OCCN5CC[N+](C)(Cc6ccc(NC(=O)[C@H](CCCNC(N)=O)NC(=O)[C@@H](NC(=O)CCOCCN7C(=O)C=CC7=O)C(C)C)cc6CN(C)C(=O)C[C@H](NC(=O)CS(=O)(=O)O)C(=O)O)CC5)c(Cl)c4C)c23)C(=O)O)n1 [L79-P1, 4-(2-(4-(4-((R)-1-carboxy-2-(2-((2-(2-methoxyphenyl)pyrimidin-4-yl)methoxy)phenyl)ethoxy)-6-(4-fluorophenyl)thieno[2,3-d]pyrimidin-5-yl)-2-chloro-3-methylphenoxy)ethyl)-1-(2-(((S)-3-carboxy-N-methyl-3-(2-sulfoacetamido)propanamido)methyl)-4-((S)-2-((S)-2-(3-(2-(2,5-dioxo-2,5-dihydro-1H-pyrrol-1-yl)ethoxy)propanamido)-3-methylbutanamido)-5-ureidopentanamido)benzyl)-1-methylpiperazin-1-ium] | 56.07 | – | 91.3 | – | 3.14 | 0.492
COc1ccccc1-c1nccc(COc2ccccc2C[C@@H](Oc2ncnc3sc(-c4ccc(F)cc4)c(-c4ccc(OCCN5CC[N+](C)(Cc6ccc(NC(=O)[C@H](CCCNC(N)=O)NC(=O)[C@@H](NC(=O)CCOCCN7C(=O)C=CC7=O)C(C)C)cc6COCc6cn(CCOC(=O)NS(=O)(=O)NCCOCCOCCOCCC(=O)O)nn6)CC5)c(Cl)c4C)c23)C(=O)O)n1 [L60-P1, trifluoroacetate] | 76.94 | 2.62 | 79.04 | 0.535 | – | –
COc1ccccc1-c1nccc(COc2ccccc2C[C@@H](Oc2ncnc3sc(-c4ccc(F)cc4)c(-c4ccc(OCCN5CC[N+](C)(Cc6ccc(NC(=O)[C@H](CCCNC(N)=O)NC(=O)[C@@H](NC(=O)CCOCCN7C(=O)C=CC7=O)C(C)C)cc6COCc6cn(CCOC(=O)NS(=O)(=O)NCCOCCO[C@@H]7O[C@H](CO)[C@@H](O)[C@H](O)[C@H]7O)nn6)CC5)c(Cl)c4C)c23)C(=O)O)n1 [L63-P1, trifluoroacetate] | 61.25 | 0.714 | – | – | – | –
COc1ccccc1-c1nccc(COc2ccccc2C[C@@H](Oc2ncnc3sc(-c4ccc(F)cc4)c(-c4ccc(OCCN5CC[N+](C)(Cc6ccc(NC(=O)[C@H](CCCNC(N)=O)NC(=O)[C@@H](NC(=O)CCOCCN7C(=O)C=CC7=O)C(C)C)cc6CN(C)C(=O)C[C@H](NC(=O)[C@@H]6O[C@H](O)[C@@H](O)[C@H](O)[C@H]6O)C(=O)O)CC5)c(Cl)c4C)c23)C(=O)O)n1 [L68-P1] | 91.25 | 6.91 | 127.3 | 0.788 | – | –
COc1ccccc1-c1nccc(COc2ccccc2C[C@@H](Oc2ncnc3sc(-c4ccc(F)cc4)c(-c4ccc(OCCN5CC[N+](C)(Cc6ccc(NC(=O)[C@H](CCCNC(N)=O)NC(=O)[C@@H](NC(=O)CCOCCN7C(=O)C=CC7=O)C(C)C)cc6CN(C)C(=O)C[C@H](NC(=O)OC6O[C@H](C(=O)O)[C@@H](O)[C@H](O)[C@H]6O)C(=O)O)CC5)c(Cl)c4C)c23)C(=O)O)n1 (stereo partly drawn) [L69-P1] | 95.03 | 14.8 | 159.6 | 0.704 | – | –
